One test deals with Tubulin. In words: Inhibition of tubulin polymerization (unknown origin). It is filed as protein-complex assay, Homo sapiens.
For a further test, the target named is Tubulin (Homo sapiens) (UniProt P68371+Q9H4B7+P0DPH7+P68366+Q13509+Q71U36+P04350+Q3ZCM7+P07437+P68363+Q9BQE3+Q6PEY2+Q13885+Q9BVA1+Q9BUF5). In words: Inhibition of [3H]-colchicine binding to tubulin (unknown origin) at 5 uM relative to control. The class given is protein-complex assay.
Test [1] has as its system MCF7. In words: cells. The note with it: Homo sapiens, MCF7, 72 h.
The species named for the next test is Homo sapiens. In words: Inhibition of human Lipoxygenase at 100 uM relative to control.
Test [2] is described as follows: Inhibition of human LOX.
The next test deals with HT-29. In words: Antiproliferative activity against human HT-29 cells assessed as reduction in cell growth incubated for 72 hrs by MTT assay. It is filed as functional, cell-based. The note with it: HT-29, 72 h. A general note: Formazan colour is commonly taken as a measure of viable cells.
In another test the test system is ARO. In words: Antiproliferative activity against human ARO cells assessed as reduction in cell growth incubated for 48 hrs by MTT assay. It is filed as functional, cell-based.
A further test deals with Jurkat. In words: Antiproliferative activity against human Jurkat cells assessed as reduction in cell growth incubated for 72 hrs by MTT assay. It is filed as functional, cell-based.
In test [3] the test system is MCF7. In words: Antiproliferative activity against human MCF7 cells assessed as reduction in cell growth incubated for 48 hrs by MTT assay. It is filed as functional, cell-based. The note with it: MCF7, 48 h.
A further test deals with A-375. In words: Antiproliferative activity against human A-375 cells assessed as reduction in cell growth incubated for 72 hrs by MTT assay. The class given is functional, cell-based. The note with it: A-375, 72 h.
The test system of another test is MDA-MB-468. In words: Antiproliferative activity against human MDA-MB-468 cells assessed as reduction in cell growth incubated for 72 hrs by MTT assay. It is filed as functional, cell-based. The note with it: MDA-MB-468, 72 h.
For a further test, the system named is OVCAR-3. In words: Antiproliferative activity against human OVCAR-3 cells assessed as reduction in cell viability incubated for 72 hrs by MTT assay. The class given is functional, cell-based. The note with it: OVCAR-3, 72 h.
The subject of a further test is OE19. In words: Antiproliferative activity against human OE19 cells assessed as reduction in cell growth incubated for 72 hrs by MTT assay. The class given is functional, cell-based. The note with it: OE19, 72 h.
A further test relates to NCI-H295R. In words: Antiproliferative activity against human NCI-H295R cells assessed as reduction in cell viability incubated for 72 hrs by MTT assay. It is filed as functional, cell-based.
The nature of test [4]: Inhibition of Influenza A virus H1N1 neuraminidase.
In the next test the test system is Influenza A virus. In words: Antiviral activity against Influenza A virus H1N1 infected in dog MDCK cells assessed as inhibition in virus-induced cytopathic effect incubated for 48 hrs by SRB assay. It is filed as functional, organism-based. On the technique in general: Protection from cytopathic effect is a common read-out in antiviral testing.
In another test the test system is HL-60. In words: Antiproliferative activity against human HL-60 cells assessed as reduction in cell growth incubated for 48 hrs by MTT assay. Particulars: HL-60, 48 h. The class given is functional, cell-based.
In the next test the test system is MV4-11. In words: Antiproliferative activity against human MV4-11 cells assessed as reduction in cell growth incubated for 48 hrs by MTT assay. Particulars: MV4-11, 48 h. It is filed as functional, cell-based.
Test [5] relates to Human immunodeficiency virus 1. In words: Antiviral activity against HIV1 infected in H9 cells assessed as reduction in viral replication. It is filed as functional. The note with it: Human immunodeficiency virus 1, H9; read-out: ED50 (the source's name).
Another test deals with OE33. In words: Antiproliferative activity against human OE33 cells assessed as reduction in cell growth incubated for 72 hrs by MTT assay. The note with it: OE33, 72 h. It is filed as functional, cell-based.
In a further test the test system is PT-45. In words: Antiproliferative activity against human PT-45 cells assessed as reduction in cell growth incubated for 72 hrs by MTT assay. The class given is functional, cell-based. The note with it: PT-45, 72 h.
Test [6] deals with HepG2. In words: Antiproliferative activity against human HepG2 cells assessed as reduction in cell viability incubated for 72 hrs by MTT assay. The class given is functional, cell-based. The note with it: HepG2, 72 h.
The test system of another test is HeLa. In words: Antiproliferative activity against human HeLa cells assessed as reduction in cell viability incubated for 72 hrs by MTT assay. It is filed as functional, cell-based.
Test [7] concerns A549. In words: Antiproliferative activity against human A549 cells assessed as reduction in cell growth incubated for 72 hrs by MTT assay. Particulars: A549, 72 h. The class given is functional, cell-based.
In test [8] the test system is A549. In words: Antiproliferative activity against human A549 cells assessed as reduction in cell growth incubated for 48 hrs by MTT assay. It is filed as functional, cell-based. The note with it: A549, 48 h.
Test [9] deals with Panel NCI-60 (60 carcinoma cell lines). In words: Antiproliferative activity against human Panel NCI-60 (60 carcinoma cell lines) assessed as reduction in cell viability. The class given is functional, cell-based.
In test [10] the target is Epidermal growth factor receptor (Homo sapiens, UniProt P00533). In words: Inhibition of EGFR (unknown origin).
Epidermal growth factor receptor, sequence (P00533 whole entry): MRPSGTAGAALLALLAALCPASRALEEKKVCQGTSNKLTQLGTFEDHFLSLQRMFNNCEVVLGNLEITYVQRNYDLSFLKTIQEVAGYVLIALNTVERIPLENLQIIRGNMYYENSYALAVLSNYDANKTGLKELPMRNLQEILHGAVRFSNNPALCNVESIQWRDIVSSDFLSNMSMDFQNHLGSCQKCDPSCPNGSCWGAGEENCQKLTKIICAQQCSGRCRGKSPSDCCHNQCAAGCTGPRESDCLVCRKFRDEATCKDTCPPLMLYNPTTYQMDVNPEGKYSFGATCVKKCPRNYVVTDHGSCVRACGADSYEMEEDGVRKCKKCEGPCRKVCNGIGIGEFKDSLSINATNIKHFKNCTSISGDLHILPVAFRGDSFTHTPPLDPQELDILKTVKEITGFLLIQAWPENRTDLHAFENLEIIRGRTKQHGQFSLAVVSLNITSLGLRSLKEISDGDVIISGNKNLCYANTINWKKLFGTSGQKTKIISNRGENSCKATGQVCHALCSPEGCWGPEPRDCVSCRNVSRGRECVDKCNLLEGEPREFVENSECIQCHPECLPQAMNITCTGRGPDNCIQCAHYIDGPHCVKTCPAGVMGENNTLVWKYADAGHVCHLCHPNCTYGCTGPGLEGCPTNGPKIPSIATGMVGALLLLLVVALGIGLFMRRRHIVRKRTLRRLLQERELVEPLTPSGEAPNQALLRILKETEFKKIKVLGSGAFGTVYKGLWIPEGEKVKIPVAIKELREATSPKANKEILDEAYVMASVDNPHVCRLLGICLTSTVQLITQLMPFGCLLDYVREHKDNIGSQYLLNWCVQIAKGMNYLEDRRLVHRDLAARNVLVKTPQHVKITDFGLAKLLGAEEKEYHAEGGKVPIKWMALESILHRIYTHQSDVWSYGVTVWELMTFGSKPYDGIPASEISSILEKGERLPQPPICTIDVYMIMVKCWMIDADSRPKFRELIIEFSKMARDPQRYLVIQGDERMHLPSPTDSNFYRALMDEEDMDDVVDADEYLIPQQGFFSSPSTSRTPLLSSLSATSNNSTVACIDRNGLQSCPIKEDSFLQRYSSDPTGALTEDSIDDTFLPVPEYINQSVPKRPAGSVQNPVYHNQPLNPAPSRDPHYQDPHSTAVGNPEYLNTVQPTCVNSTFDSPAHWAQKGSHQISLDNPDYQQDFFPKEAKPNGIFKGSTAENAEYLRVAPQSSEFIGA
The next test addresses Cytochrome P450 1A2 (Homo sapiens, UniProt P05177). In words: Inhibition of CYP1A2 (unknown origin). It is filed as ADME.
The target of test [11] is Quinolone resistance protein NorA (Staphylococcus aureus) (UniProt P0A0J7). In words: Inhibition of NorA efflux pump in Staphylococcus aureus SA1199B overexpressing NorA gene assessed as inhibition of EtBr efflux at 50 uM incubated for 20 mins by fluorometric assay.
The subject of the next test is Staphylococcus aureus. In words: Antibacterial activity against Methicillin-resistant Staphylococcus aureus assessed as reduction in bacterial growth. It is filed as functional.
In test [12] the target is Mitogen-activated protein kinase; ERK1/ERK2 (Homo sapiens, UniProt P27361+P28482). In words: Inhibition of RAF1- induced activation of MEK (unknown origin) signalling pathway assessed as reduction in ERK1/2 phosphorylation. It is filed as protein assay.
Another test concerns HT-1080. In words: cells. Particulars: Homo sapiens, HT-1080, 48 h.
Test [13] has as its target Dual specificity mitogen-activated protein kinase kinase 1 (Homo sapiens, UniProt Q02750). In words: Inhibition of RAF1- induced activation of MEK (unknown origin) signalling pathway assessed as reduction in MEK1 phosphorylation.
A further test concerns WiDr. In words: Antiproliferative activity against human WiDr cells assessed as reduction in cell viability incubated for 48 hrs by MTT assay. It is filed as functional, cell-based.
Test [14] relates to HepG2. In words: Cytotoxicity against human HepG2 cells assessed as reduction in cell growth incubated for 48 hrs by MTT assay. Particulars: HepG2, 48 h. It is filed as functional, cell-based.
In another test the test system is KB. In words: Cytotoxicity against human KB cells assessed as reduction in cell growth incubated for 48 hrs by MTT assay. It is filed as functional, cell-based.
For test [15], the system named is DU-145. In words: Antitumor activity against human DU-145 cells xenografted in Balb/c nude mouse model assessed as tumor growth inhibition at 5 mg/kg, ip administered once daily for 16 days relative to control. Details: scale not given: the % may be the effect or the level left. The note with it: time 16 day. The class given is functional.
The subject of test [16] is DU-145. In words: Antiproliferative activity against human DU-145 cells assessed as reduction in cell viability measured for 48 hrs by MTT assay. It is filed as functional, cell-based. The note with it: DU-145, 48 h.

In brackets after ≈: the same amount, converted by molar mass.

Dual specificity mitogen-activated protein kinase kinase 1, sequence (Q02750 whole entry): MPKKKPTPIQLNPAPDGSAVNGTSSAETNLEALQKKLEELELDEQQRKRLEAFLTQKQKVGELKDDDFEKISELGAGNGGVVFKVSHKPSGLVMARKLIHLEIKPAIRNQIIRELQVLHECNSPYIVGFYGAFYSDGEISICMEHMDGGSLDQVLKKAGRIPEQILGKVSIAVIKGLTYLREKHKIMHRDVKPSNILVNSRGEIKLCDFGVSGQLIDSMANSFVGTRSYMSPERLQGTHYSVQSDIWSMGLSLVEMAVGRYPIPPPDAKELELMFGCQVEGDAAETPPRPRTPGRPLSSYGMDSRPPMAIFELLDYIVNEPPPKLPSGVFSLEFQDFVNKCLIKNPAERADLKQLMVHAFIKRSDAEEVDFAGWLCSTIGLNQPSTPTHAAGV
Cytochrome P450 1A2, sequence (P05177 whole entry): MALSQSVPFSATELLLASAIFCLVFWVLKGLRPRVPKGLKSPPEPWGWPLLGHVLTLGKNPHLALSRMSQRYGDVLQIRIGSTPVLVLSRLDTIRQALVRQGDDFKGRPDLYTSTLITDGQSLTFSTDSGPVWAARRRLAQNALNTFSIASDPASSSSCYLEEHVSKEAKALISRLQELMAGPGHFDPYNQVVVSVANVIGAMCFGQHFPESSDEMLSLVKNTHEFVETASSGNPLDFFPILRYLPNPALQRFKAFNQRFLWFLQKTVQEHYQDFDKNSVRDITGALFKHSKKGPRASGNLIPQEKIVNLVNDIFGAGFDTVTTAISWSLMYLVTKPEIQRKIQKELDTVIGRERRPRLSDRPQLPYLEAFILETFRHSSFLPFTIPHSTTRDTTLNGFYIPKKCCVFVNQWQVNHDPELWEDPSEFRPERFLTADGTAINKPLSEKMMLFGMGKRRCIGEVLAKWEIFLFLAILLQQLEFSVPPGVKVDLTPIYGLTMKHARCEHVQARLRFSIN
Description for HT-1080: Antiproliferative activity against human HT-1080 cells assessed as reduction in cell viability incubated for 48 hrs by MTT assay

One may read the IC50 as the point on the concentration scale where inhibition reaches its midpoint. For orientation: inhibition means the share of the control response that was lost under treatment. Turning to `COc1ccc(-c2oc3c(OC)c(OC)c(OC)c(O)c3c(=O)c2OC)cc1O`, the IC50 was found to be 0.8 µM on Tubulin and 0.13 µM with MCF7 [1]. In addition, the inhibition on Tubulin (Homo sapiens) was 59%.

Take `Oc1ccc(-c2ccc3ccccc3n2)c2ccccc12`: the inhibition in the test listed under Homo sapiens was more than 80%. Also, the IC50 in test [2] was determined as 6.5 µM.

In the test listed under Homo sapiens, `Oc1ccc2nc(-c3ccccc3O)ccc2c1` came in with an inhibition of more than 80%. In test [2], half-maximal inhibition (IC50) required 6.5 µM.

For `O=c1cc(-c2ccccc2)[nH]c2ccc3c(ccn3CC3CC3)c12`, the IC50 in the test on HT-29, with ARO, with Jurkat, with MCF7 [3], in the test on A-375 and with MDA-MB-468 was 0.02 µM each time. Also, the IC50 is 0.02 µM in the test with OVCAR-3, 0.02 µM in the test on OE19, 0.9 µM against Tubulin and 0.02 µM with NCI-H295R. This compound came in with an inhibition on Tubulin (Homo sapiens) of 83%.

Consider `COc1ccccc1-c1cc(=O)c2ccccc2[nH]1`, for which the IC50 in test [4] is 1.3 µM. Further, in the test with Influenza A virus, the EC50 amounted to 4.96 µM.

On to `COc1cc2c(cc1CC=C(C)C)C(=O)NC(c1ccc(O)cc1)N2` (configuration not stated), for which the IC50 with HL-60 stood at 0.25 µM; in the test with MV4-11, 0.5 µM.

Regarding `CCOC(=O)C1=C[C@@H](OC(CC)CC)[C@H](NC(C)=O)[C@@H](N)C1` [OSELTAMIVIR], the IC50 in test [4] came out at 1.9 µM. Besides, the EC50 in the test on Influenza A virus was found to be 12.7 µM.

In turn, `COc1ccc(-c2oc3cc(O)c(OC)c(O)c3c(=O)c2OC)cc1O` [CENTAUREIDIN] showed an inhibition on Tubulin (Homo sapiens) of 35%. In the test on MCF7 [1], the midpoint of inhibition, the IC50, lay at 0.24 µM.

Consider `CC(=O)Oc1cc2sc(-c3ccccc3)cc(=O)c2cc1OC(C)=O`, for which, in test [5], the EC50 stood at 0.65 µg/mL (≈ 1.83 µM).

Consider `CCOC(=O)CCn1ccc2c3c(=O)cc(-c4ccccc4)[nH]c3ccc21`, for which the IC50 in the test with HT-29, in the test on ARO, in the test with OE33, in the test on Jurkat, in the test on MCF7 [3] and in the test with A-375 was 0.005 µM in each case. Besides, the IC50 in the test on PT-45, with HepG2 [6], with HeLa, with MDA-MB-468, in the test on OVCAR-3 and with A549 [7] was 0.005 µM each time. In addition, the concentration for half-maximal inhibition (IC50) in the test on A549 [8] amounted to 0.005 µM; in the test with OE19 it was 0.005 µM; on Tubulin it was 0.75 µM; in the test with NCI-H295R, 0.005 µM. On Tubulin (Homo sapiens), this compound gave an inhibition of 75%.

Take `O=c1c(O)c(-c2ccc(O)c(O)c2)oc2cc(O)cc(O)c12` [QUERCETIN]: in [4], 8.7 µM corresponded to half-maximal inhibition (IC50). Besides, the EC50 in the test on Influenza A virus amounted to 0.56 µM.

Turning to `COc1cc(O)c2c(O)cc(-c3cccc(F)c3)nc2c1`, in test [9], the IC50 worked out at 14.5 µM.

`COc1cc(O)c2c(O)c(-c3cccc(Cl)c3)cnc2c1` yielded a half-inhibitory concentration (IC50) in test [10] of 0.04 µM.

On Cytochrome P450 1A2, `COc1ccc(-c2cc(=O)c3cc(OC)c4cccc(OC)c4c3[nH]2)cc1` gave a 50% inhibitory concentration (IC50) of 0.0041 µM.

In general, MIC refers to the least concentration at which growth counts as inhibited. In the case of `CCCOc1ccc(-c2cc(=O)c3ccccc3o2)cc1`, the inhibition in test [11] was found to be 33.9%. The MIC in the test with Staphylococcus aureus turned out to be 0.4 µg/mL (≈ 1.43 µM).

For `COc1cccc(-c2cc(=O)c3ccccc3s2)c1N`, the IC50 was 13.8 µM in test [12], 29.5 µM in the test on HT-1080, 4.35 µM in test [13] and 30.5 µM in the test with WiDr.

Regarding `COc1cccc(-c2c[nH]c3c(F)cc(F)cc3c2=O)c1`, the results for the 50% inhibitory concentration (IC50) with HepG2 [14] and with KB were 0.05 µM and 0.06 µM, respectively.

In the case of `O=C1C[C@H](c2cccc(Br)c2)Nc2ccccc21`, the Activity in the test on DU-145 [15] came out at 60%. The IC50 with DU-145 [16] was 0.4 µM.

`COc1cccc(-c2c[nH]c3c(F)cccc3c2=O)c1`: the IC50 with HepG2 [14] was 0.01 µM; in the test with KB, 0.03 µM.

As for `COc1ccc(-c2cc(=O)c3cc(OC)c(OC)c(OC)c3o2)cc1`, the IC50 at Tubulin turned out to be 3 µM; in the test with MCF7 [1], 1.7 µM. The compound also returned an inhibition on Tubulin (Homo sapiens) of 43%.

Take `COc1cccc(-c2cc(=O)c3ccccc3o2)c1N`: the results for the IC50 (in test [12]; in the test on HT-1080; with WiDr) were 2.95 µM, 8.6 µM and 10 µM, respectively.

The values above are taken from ChEMBL document CHEMBL5576076, “Bioisosteric heterocyclic analogues of natural bioactive flavonoids by scaffold-hopping approaches: State-of-the-art and perspectives in medicinal chemistry” (Bioorg Med Chem, 2024).
